The values below come from patent US7750003B2, “Compounds-943” (AstraZeneca AB, priority 2006, dated 2010).

Molecules are shown by their SMILES.

In this assay the target is recombinant mTOR (FLAG-tagged, residues 1362-2549) (Homo sapiens, UniProt P42345). Nature of the assay: In vitro mTOR kinase assay (Test (a), AlphaScreen). Conditions: ATP 20 μM, read-out: Test (a): IC50 versus mTOR kinase. It is filed as biochemical. The procedure: (a) In Vitro mTOR Kinase Assay
recombinant mTOR (FLAG-tagged, residues 1362-2549), sequence (P42345 1362-2549): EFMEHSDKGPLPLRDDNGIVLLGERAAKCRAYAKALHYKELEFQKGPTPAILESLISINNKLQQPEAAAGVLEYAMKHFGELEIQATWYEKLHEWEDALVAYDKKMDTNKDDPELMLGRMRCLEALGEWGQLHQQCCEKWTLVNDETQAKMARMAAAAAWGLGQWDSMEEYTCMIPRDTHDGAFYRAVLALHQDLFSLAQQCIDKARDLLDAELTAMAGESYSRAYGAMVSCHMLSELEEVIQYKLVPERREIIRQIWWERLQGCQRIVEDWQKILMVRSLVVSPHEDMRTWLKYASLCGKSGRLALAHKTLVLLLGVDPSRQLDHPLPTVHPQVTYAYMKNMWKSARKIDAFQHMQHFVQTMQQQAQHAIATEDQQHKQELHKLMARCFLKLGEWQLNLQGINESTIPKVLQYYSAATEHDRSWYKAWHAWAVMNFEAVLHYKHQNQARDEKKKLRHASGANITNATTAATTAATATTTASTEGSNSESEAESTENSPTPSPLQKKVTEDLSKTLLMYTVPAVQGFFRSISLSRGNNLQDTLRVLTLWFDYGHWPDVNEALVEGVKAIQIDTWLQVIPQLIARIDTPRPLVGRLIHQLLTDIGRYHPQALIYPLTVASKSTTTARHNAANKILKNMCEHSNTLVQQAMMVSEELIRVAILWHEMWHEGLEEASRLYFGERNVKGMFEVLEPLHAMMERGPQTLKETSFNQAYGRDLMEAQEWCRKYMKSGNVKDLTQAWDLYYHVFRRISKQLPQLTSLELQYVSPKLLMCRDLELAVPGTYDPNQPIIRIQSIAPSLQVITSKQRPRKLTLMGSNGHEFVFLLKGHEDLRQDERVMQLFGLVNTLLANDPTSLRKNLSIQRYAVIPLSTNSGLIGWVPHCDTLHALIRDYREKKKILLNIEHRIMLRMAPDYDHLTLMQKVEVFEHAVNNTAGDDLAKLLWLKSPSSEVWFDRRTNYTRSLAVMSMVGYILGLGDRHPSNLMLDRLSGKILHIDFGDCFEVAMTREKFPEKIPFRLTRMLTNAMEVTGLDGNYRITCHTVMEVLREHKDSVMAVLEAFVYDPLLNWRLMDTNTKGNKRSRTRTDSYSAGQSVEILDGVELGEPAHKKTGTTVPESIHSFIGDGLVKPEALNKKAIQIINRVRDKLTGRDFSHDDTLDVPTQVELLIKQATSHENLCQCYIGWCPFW
Following expression in the mammalian HEK293 cell line, expressed protein was purified using the FLAG epitope tag using standard purification techniques.
Aliquots (2 μl) of each compound dilution were placed into a well of a Greiner 384-well low volume (LV) white polystyrene plate (Greiner Bio-one).
These assay solutions were incubated for 2 hours at room temperature.
The resultant signals arising from laser light excitation at 680 nm were read using a Packard Envision instrument.
The phosphorylated biotinylated peptide that is associated with AlphaScreen Streptavidin donor beads forms a complex with the p70 S6 Kinase (T389) 1A5 Monoclonal Antibody that is associated with Alphascreen Protein A acceptor beads. Upon laser light excitation at 680 nm, the donor bead: acceptor bead complex produces a signal that can be measured. Accordingly, the presence of mTOR kinase activity results in an assay signal. In the presence of an mTOR kinase inhibitor, signal strength is reduced.
mTOR enzyme inhibition for a given test compound was expressed as an IC50 value.
In general terms: Bead proximity is the source of the signal in Alpha formats.
What is called IC50 is the concentration at which inhibition is half-maximal. Consider `CCNC(=O)Nc1ccc(-c2nc(CS(C)(=O)=O)cc(N3CCOC[C@@H]3C)n2)cc1` [Example 1, 1-Ethyl-3-[4-[4-[(3S)-3-methylmorpholin-4-yl]-6-(methylsulfonylmethyl)pyrimidin-2-yl]phenyl]urea], for which the half-inhibitory concentration (IC50) was determined as 6.2 nM.
With `COc1ccc(NC(=O)Nc2ccc(-c3nc(CS(C)(=O)=O)cc(N4CCOC[C@@H]4C)n3)cc2)cc1` [Example 1a, 1-(4-methoxyphenyl)-3-[4-[4-[(3S)-3-methylmorpholin-4-yl]-6-(methylsulfonylmethyl)pyrimidin-2-yl]phenyl]urea], the half-inhibitory concentration (IC50) came to 62 nM.
Consider `CC(C)NC(=O)Nc1ccc(-c2nc(CS(C)(=O)=O)cc(N3CCOC[C@@H]3C)n2)cc1` [Example 1c, 3-[4-[4-[(3S)-3-methylmorpholin-4-yl]-6-(methylsulfonylmethyl)pyrimidin-2-yl]phenyl]-1-propan-2-yl-urea], for which the IC50 was 78 nM.
With `C[C@H]1COCCN1c1cc(CS(C)(=O)=O)nc(-c2ccc(NC(=O)Nc3ccc(F)cc3)cc2)n1` [Example 1e, 3-(4-fluorophenyl)-1-[4-[4-[(3S)-3-methylmorpholin-4-yl]-6-(methylsulfonylmethyl)pyrimidin-2-yl]phenyl]urea], the IC50 was determined as 320 nM.
As to `C[C@H]1COCCN1c1cc(CS(C)(=O)=O)nc(-c2ccc(NC(=O)Nc3ccc(F)cc3)c(F)c2)n1` [Example 1f, 1-[2-fluoro-4-[4-[(3S)-3-methylmorpholin-4-yl]-6-(methylsulfonylmethyl)pyrimidin-2-yl]phenyl]-3-(4-fluorophenyl)urea], the IC50 amounted to 360 nM.
As for `C[C@H]1COCCN1c1cc(CS(C)(=O)=O)nc(-c2ccc(NC(=O)Nc3ccccc3)c(F)c2)n1` [Example 1g, 1-[2-fluoro-4-[4-[(3S)-3-methylmorpholin-4-yl]-6-(methylsulfonylmethyl)pyrimidin-2-yl]phenyl]-3-phenyl-urea], the IC50 came to 960 nM.
For `COc1cc(-c2nc(CS(C)(=O)=O)cc(N3CCOC[C@@H]3C)n2)ccc1NC(=O)Nc1ccc(F)cc1` [Example 1h, 3-(4-fluorophenyl)-1-[2-methoxy-4-[4-[(3S)-3-methylmorpholin-4-yl]-6-(methylsulfonylmethyl)pyrimidin-2-yl]phenyl]urea], the half-maximal inhibitory concentration (IC50) stood at 1200 nM.
In the case of `COc1ccc(NC(=O)Nc2ccc(-c3nc(CS(C)(=O)=O)cc(N4CCOC[C@@H]4C)n3)cc2OC)cc1` [Example 1i, 3-[2-methoxy-4-[4-[(3S)-3-methylmorpholin-4-yl]-6-(methylsulfonylmethyl)pyrimidin-2-yl]phenyl]-1-(4-methoxyphenyl)urea], the IC50 worked out at 550 nM.
Turning to `C[C@H]1COCCN1c1cc(CS(C)(=O)=O)nc(-c2ccc(NC(=O)Nc3ccc(F)cc3)nc2)n1` [Example 1j, 3-(4-fluorophenyl)-1-[5-[4-[(3S)-3-methylmorpholin-4-yl]-6-(methylsulfonylmethyl)pyrimidin-2-yl]pyridin-2-yl]urea], the IC50 is 43 nM.
For the molecule `C[C@H]1COCCN1c1cc(CS(C)(=O)=O)nc(-c2ccc(NC(=O)N3CCC3)cc2)n1` [Example 2, N-[4-[4-[(3S)-3-methylmorpholin-4-yl]-6-(methylsulfonylmethyl)pyrimidin-2-yl]phenyl]azetidine-1-carboxamide], the IC50 turned out to be 310 nM.
The figure for `COCCN(C)C(=O)Nc1ccc(-c2nc(CS(C)(=O)=O)cc(N3CCOC[C@@H]3C)n2)cc1` [Example 2a, 1-(2-methoxyethyl)-1-methyl-3-[4-[4-[(3S)-3-methylmorpholin-4-yl]-6-(methylsulfonylmethyl)pyrimidin-2-yl]phenyl]urea] is 2300 nM; for `C[C@H]1COCCN1c1cc(CS(C)(=O)=O)nc(-c2ccc(NC(=O)N(C)C)cc2)n1` [Example 2b, 1,1-dimethyl-3-[4-[4-[(3S)-3-methylmorpholin-4-yl]-6-(methylsulfonylmethyl)pyrimidin-2-yl]phenyl]urea] it is 290 nM; for `COc1cc(-c2nc(CS(C)(=O)=O)cc(N3CCOC[C@@H]3C)n2)ccc1NC(=O)N(C)C` [Example 2c, 3-[2-methoxy-4-[4-[(3S)-3-methylmorpholin-4-yl]-6-(methylsulfonylmethyl)pyrimidin-2-yl]phenyl]-1,1-dimethyl-urea] it is 1200 nM.
In the case of `CNC(=O)Nc1ccc(-c2nc(CS(C)(=O)=O)cc(N3CCOC[C@@H]3C)n2)cc1` [Example 2d, 1-methyl-3-[4-[4-[(3S)-3-methylmorpholin-4-yl]-6-(methylsulfonylmethyl)pyrimidin-2-yl]phenyl]urea], the IC50 stood at 6.8 nM.
`CNC(=O)Nc1ccc(-c2nc(CS(C)(=O)=O)cc(N3CCOC[C@@H]3C)n2)cc1F` [Example 2e, 3-[2-fluoro-4-[4-[(3S)-3-methylmorpholin-4-yl]-6-(methylsulfonylmethyl)pyrimidin-2-yl]phenyl]-1-methyl-urea]: the IC50 amounted to 38 nM.
The figure for `C[C@H]1COCCN1c1cc(CS(C)(=O)=O)nc(-c2ccc(NC(=O)N(C)C)c(F)c2)n1` [Example 2f, 3-[2-fluoro-4-[4-[(3S)-3-methylmorpholin-4-yl]-6-(methylsulfonylmethyl)pyrimidin-2-yl]phenyl]-1,1-dimethyl-urea] is 1700 nM; for `Cc1cc(-c2nc(CS(C)(=O)=O)cc(N3CCOC[C@@H]3C)n2)ccc1NC(=O)Nc1ccccc1` [Example 3, 1-[2-Methyl-4-[4-[(3S)-3-methylmorpholin-4-yl]-6-(methylsulfonylmethyl)pyrimidin-2-yl]phenyl]-3-phenyl-urea] it is 1500 nM.
With `CCNC(=O)Nc1ccc(-c2nc(CS(C)(=O)=O)cc(N3CCOC[C@@H]3C)n2)cc1OC` [Example 3a, 1-ethyl-3-[2-methoxy-4-[4-[(3S)-3-methylmorpholin-4-yl]-6-(methylsulfonylmethyl)pyrimidin-2-yl]phenyl]urea], the IC50 is 100 nM.
As for `C[C@H]1COCCN1c1cc(CS(C)(=O)=O)nc(-c2ccc(NC(=O)Nc3ccccc3)c(Cl)c2)n1` [Example 3b, 1-[2-Chloro-4-[4-[(3S)-3-methylmorpholin-4-yl]-6-(methylsulfonylmethyl)pyrimidin-2-yl]phenyl]-3-phenyl-urea], the figure is 440 nM.
Consider `C[C@H]1COCCN1c1cc(CS(C)(=O)=O)nc(-c2cccc(NC(=O)Nc3ccccc3)c2)n1` [Example 3c, 1-[3-[4-[(3S)-3-Methylmorpholin-4-yl]-6-(methylsulfonylmethyl)pyrimidin-2-yl]phenyl]-3-phenyl-urea], for which the IC50 stood at 3300 nM.
For the molecule `C[C@H]1COCCN1c1cc(CS(C)(=O)=O)nc(-c2ccc(N(C)C(=O)Nc3ccccc3)cc2)n1` [Example 3d, 1-Methyl-1-[4-[4-[(3S)-3-methylmorpholin-4-yl]-6-(methylsulfonylmethyl)pyrimidin-2-yl]phenyl]-3-phenyl-urea], the concentration for half-maximal inhibition (IC50) was determined as 2900 nM.
The figure for `CCNC(=O)Nc1ccc(-c2nc(CS(C)(=O)=O)cc(N3CCOC[C@@H]3C)n2)cc1F` [Example 4, 1-Ethyl-3-[2-fluoro-4-[4-[(3S)-3-methylmorpholin-4-yl]-6-(methylsulfonylmethyl)pyrimidin-2-yl]phenyl]urea] is 31 nM; for `C[C@H]1COCCN1c1cc(CS(C)(=O)=O)nc(-c2ccc(NC(=O)N3CCC3)c(F)c2)n1` [Example 4a, N-[2-Fluoro-4-[4-[(3S)-3-methylmorpholin-4-yl]-6-(methylsulfonylmethyl)pyrimidin-2-yl]phenyl]azetidine-1-carboxamide] it is 1000 nM.
For the molecule `CC(C)NC(=O)Nc1ccc(-c2nc(CS(C)(=O)=O)cc(N3CCOC[C@@H]3C)n2)cc1F` [Example 4b, 3-[2-fluoro-4-[4-[(3S)-3-methylmorpholin-4-yl]-6-(methylsulfonylmethyl)pyrimidin-2-yl]phenyl]-1-propan-2-yl-urea], the IC50 was determined as 140 nM.
Turning to `COCCNC(=O)Nc1ccc(-c2nc(CS(C)(=O)=O)cc(N3CCOC[C@@H]3C)n2)cc1` [Example 4d, 1-(2-methoxyethyl)-3-[4-[4-[(3S)-3-methylmorpholin-4-yl]-6-(methylsulfonylmethyl)pyrimidin-2-yl]phenyl]urea], the IC50 came out at 170 nM.
For the molecule `COCCNC(=O)Nc1ccc(-c2nc(CS(C)(=O)=O)cc(N3CCOC[C@@H]3C)n2)cc1OC` [Example 4e, 1-(2-methoxyethyl)-3-[2-methoxy-4-[4-[(3S)-3-methylmorpholin-4-yl]-6-(methylsulfonylmethyl)pyrimidin-2-yl]phenyl]urea], the IC50 is 600 nM.
`COCCN(C)C(=O)Nc1ccc(-c2nc(CS(C)(=O)=O)cc(N3CCOC[C@@H]3C)n2)cc1F` [Example 4f, 3-[2-Fluoro-4-[4-[(3S)-3-methylmorpholin-4-yl]-6-(methylsulfonylmethyl)pyrimidin-2-yl]phenyl]-1-(2-methoxyethyl)-1-methyl-urea]: the IC50 came out at 680 nM.
Regarding `COCCNC(=O)Nc1ccc(-c2nc(CS(C)(=O)=O)cc(N3CCOC[C@@H]3C)n2)cc1F` [Example 4g, 3-[2-fluoro-4-[4-[(3S)-3-methylmorpholin-4-yl]-6-(methylsulfonylmethyl)pyrimidin-2-yl]phenyl]-1-(2-methoxyethyl)urea], the IC50 worked out at 830 nM.
On to `CCNC(=O)Nc1ccc(-c2nc(CO)cc(N3CCOC[C@@H]3C)n2)cc1` [Example 5, 1-Ethyl-3-[4-[4-(hydroxymethyl)-6-[(3S)-3-methylmorpholin-4-yl]pyrimidin-2-yl]phenyl]urea], for which the IC50 turned out to be 63 nM.
Consider `C[C@H]1COCCN1c1cc(CO)nc(-c2ccc(NC(=O)Nc3ccccc3)cc2)n1` [Example 6, 1-[4-[4-(Hydroxymethyl)-6-[(3S)-3-methylmorpholin-4-yl]pyrimidin-2-yl]phenyl]-3-phenyl-urea], for which the IC50 worked out at 560 nM.
